We go through 23 compounds from patent US12503475B2 (Centessa Pharmaceuticals (UK) Limited, priority 2020, dated 2025).

In the experiment the target is T1, human orexin type 2 receptor (hOX2R) (Homo sapiens, UniProt O43614).
T1 construct: expressed in transfected cells
T1 sequence (O43614 1-444): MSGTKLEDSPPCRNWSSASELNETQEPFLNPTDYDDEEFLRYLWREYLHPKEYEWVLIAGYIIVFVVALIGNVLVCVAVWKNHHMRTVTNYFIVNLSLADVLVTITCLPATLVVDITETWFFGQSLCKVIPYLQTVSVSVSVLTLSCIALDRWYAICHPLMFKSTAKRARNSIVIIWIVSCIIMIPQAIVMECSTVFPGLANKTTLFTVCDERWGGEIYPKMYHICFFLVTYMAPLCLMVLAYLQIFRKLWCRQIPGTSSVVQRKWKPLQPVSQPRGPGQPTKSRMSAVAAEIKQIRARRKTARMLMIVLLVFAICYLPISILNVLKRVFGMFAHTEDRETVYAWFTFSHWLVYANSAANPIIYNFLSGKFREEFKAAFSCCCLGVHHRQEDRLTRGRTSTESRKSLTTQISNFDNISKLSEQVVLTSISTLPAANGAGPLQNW
In words: Measurement of orexin type 2 receptor agonist activity (FLIPR calcium fluorescence). The class given is cell-based. Particulars: CHO cells expressing hOX2R, FLIPR calcium fluorescence; for EC50: read-out: hOx2 pEC50 (converted); for Emax: CHO, read-out: hOx2 Emax (%). The essentials:
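Agonism was read as fluorescence in cells stably expressing human OX2R. E. is the response at 10 μM relative to orexin A as full agonist (100%).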

As usually defined, the Emax is the maximal effect, on the per cent scale that the assay sets.

Take `C[C@@H](C#N)C(=O)N1CC2(CC2)[C@H](NS(C)(=O)=O)[C@@H]1Cc1cccc(-c2ccccc2)c1` [Compound 309, N-((6S,7S)-6-([1,1′-biphenyl]-3-ylmethyl)-5-((S)-2-cyanopropanoyl)-5-azaspiro[2.4]heptan-7-yl)methanesulfonamide]: the EC50 is 10 to 100 nM and the Emax lay within 90 to 100%.

On to `CCCS(=O)(=O)N[C@@H]1[C@H](Cc2cccc(-c3ccccc3)c2)N(C(=O)[C@H]2CCO2)CC12CC2` [Compound 310, N-((6S,7S)-6-([1,1′-biphenyl]-3-ylmethyl)-5-((R)-oxetane-2-carbonyl)-5-azaspiro[2.4]heptan-7-yl)propane-1-sulfonamide], for which the EC50 is 10 to 100 nM and the maximal response (Emax) lay within 90 to 100%.

`COCCNC(=O)N1CC2(CC2)[C@H](NS(C)(=O)=O)[C@@H]1Cc1cccc(-c2ccccc2)c1F` [Compound 311, (6S,7S)-6-((2-fluoro-[1,1′-biphenyl]-3-yl)methyl)-N-(2-methoxyethyl)-7-(methylsulfonamido)-5-azaspiro[2.4]heptane-5-carboxamide]: the EC50 was 1 to 10 nM and the Emax lay within 90 to 100%.

Regarding `CO[C@H]1CCN(C(=O)N2CC3(CC3)[C@H](NS(C)(=O)=O)[C@@H]2Cc2cccc(-c3ccccc3)c2F)C1` [Compound 313, N-((6S,7S)-6-((2-fluoro-[1,1′-biphenyl]-3-yl)methyl)-5-((S)-3-methoxypyrrolidine-1-carbonyl)-5-azaspiro[2.4]heptan-7-yl)methanesulfonamide], the EC50 was 10 to 100 nM and the Emax fell in the range of 90 to 100%.

`CS(=O)(=O)N[C@@H]1[C@H](Cc2cccc(-c3ccccc3)c2F)N(C(=O)NC2CC(F)C2)CC12CC2` (stereo partly drawn) [Compound 315, (6S,7S)-6-((2-fluoro-[1,1′-biphenyl]-3-yl)methyl)-N-(3-fluorocyclobutyl)-7-(methylsulfonamido)-5-azaspiro[2.4]heptane-5-carboxamide]: the EC50 was 10 to 100 nM and the Emax was in the range of 80 to 90%.

For the compound `CO[C@@H](C)CN(C)C(=O)N1CC2(CC2)[C@H](NS(C)(=O)=O)[C@@H]1Cc1cccc(-c2ccccc2)c1F` [Compound 316], the EC50 is 1 to 10 nM and the Emax was 90 to 100%.

For `COC[C@@H](C)N(C)C(=O)N1CC2(CC2)[C@H](NS(C)(=O)=O)[C@@H]1Cc1cccc(-c2ccccc2)c1F` [Compound 317, (6S,7S)-6-((2-fluoro-[1,1′-biphenyl]-3-yl)methyl)-N-((R)-1-methoxypropan-2-yl)-N-methyl-7-(methylsulfonamido)-5-azaspiro[2.4]heptane-5-carboxamide], the EC50 was 1 to 10 nM and the Emax was in the range of 90 to 100%.

Take `C[C@@H](CC#N)NC(=O)N1CC2(CC2)[C@H](NS(C)(=O)=O)[C@@H]1Cc1cccc(-c2ccccc2)c1F` [Compound 318, (6S,7S)-N-((S)-1-cyanopropan-2-yl)-6-((2-fluoro-[1,1′-biphenyl]-3-yl)methyl)-7-(methylsulfonamido)-5-azaspiro[2.4]heptane-5-carboxamide]: the EC50 is 1 to 10 nM and the Emax is 90 to 100%.

Take `CS(=O)(=O)N[C@@H]1[C@H](Cc2cccc(-c3ccccc3)c2F)N(C(=O)NC23CC(F)(C2)C3)CC12CC2` [Compound 319, (6S,7S)-6-((2-fluoro-[1,1′-biphenyl]-3-yl)methyl)-N-(3-fluorobicyclo[1.1.1]pentan-1-yl)-7-(methylsulfonamido)-5-azaspiro[2.4]heptane-5-carboxamide]: the EC50 is 10 to 100 nM and the Emax fell in the range of 90 to 100%.

For the compound `C[C@]1(NC(=O)N2CC3(CC3)[C@H](NS(C)(=O)=O)[C@@H]2Cc2cccc(-c3ccccc3)c2F)CCOC1` [Compound 320, (6S,7S)-6-((2-fluoro-[1,1′-biphenyl]-3-yl)methyl)-7-(methylsulfonamido)-N-((S)-3-methyltetrahydrofuran-3-yl)-5-azaspiro[2.4]heptane-5-carboxamide], the EC50 was 10 to 100 nM and the Emax fell in the range of 90 to 100%.

For the compound `CN(C(=O)N1CC2(CC2)[C@H](NS(C)(=O)=O)[C@@H]1Cc1cccc(-c2ccccc2)c1F)[C@H]1CCOC1` [Compound 321, (6S,7S)-6-((2-fluoro-[1,1′-biphenyl]-3-yl)methyl)-N-methyl-7-(methylsulfonamido)-N-((S)-tetrahydrofuran-3-yl)-5-azaspiro[2.4]heptane-5-carboxamide], the EC50 is 10 to 100 nM and the Emax lay in the range of 90 to 100%.

For the compound `CC1(CNC(=O)N2CC3(CC3)[C@H](NS(C)(=O)=O)[C@@H]2Cc2cccc(-c3ccccc3)c2F)COC1` [Compound 322, (6S,7S)-6-((2-fluoro-[1,1′-biphenyl]-3-yl)methyl)-N-((3-methyloxetan-3-yl)methyl)-7-(methylsulfonamido)-5-azaspiro[2.4]heptane-5-carboxamide], the EC50 was 0.0794 to 1 nM and the Emax lay within 90 to 100%.

On to `C[C@H](O)CN(C)C(=O)N1CC2(CC2)[C@H](NS(C)(=O)=O)[C@@H]1Cc1cccc(-c2ccccc2)c1F` [Compound 323, (6S,7S)-6-((2-fluoro-[1,1′-biphenyl]-3-yl)methyl)-N-((S)-2-hydroxypropyl)-N-methyl-7-(methylsulfonamido)-5-azaspiro[2.4]heptane-5-carboxamide], for which the EC50 was 1 to 10 nM and the Emax was in the range of 90 to 100%.

In the case of `CO[C@H](C)CNC(=O)N1CC2(CC2)[C@H](NS(C)(=O)=O)[C@@H]1Cc1cccc(-c2ccccc2)c1F` [Compound 324, (6S,7S)-6-((2-fluoro-[1,1′-biphenyl]-3-yl)methyl)-N-((R)-2-methoxypropyl)-7-(methylsulfonamido)-5-azaspiro[2.4]heptane-5-carboxamide], the EC50 is 10 to 100 nM and the maximal effect (Emax) fell in the range of 90 to 100%.

Consider `COC[C@@H](C)NC(=O)N1CC2(CC2)[C@H](NS(C)(=O)=O)[C@@H]1Cc1cccc(-c2ccccc2)c1F` [Compound 325, (6S,7S)-6-((2-fluoro-[1,1′-biphenyl]-3-yl)methyl)-N-((R)-1-methoxypropan-2-yl)-7-(methylsulfonamido)-5-azaspiro[2.4]heptane-5-carboxamide], for which the EC50 was 1 to 10 nM and the Emax fell in the range of 90 to 100%.

For `COCCN(C)C(=O)N1CC2(CC2)[C@H](NS(C)(=O)=O)[C@@H]1Cc1cccc(-c2ccccc2)c1F` [Compound 326, (6S,7S)-6-((2-fluoro-[1,1′-biphenyl]-3-yl)methyl)-N-(2-methoxyethyl)-N-methyl-7-(methylsulfonamido)-5-azaspiro[2.4]heptane-5-carboxamide], the EC50 was 1 to 10 nM and the maximum response (Emax) lay within 90 to 100%.

As for `CN(CCC#N)C(=O)N1CC2(CC2)[C@H](NS(C)(=O)=O)[C@@H]1Cc1cccc(-c2ccccc2)c1F` [Compound 327, (6S,7S)-N-(2-cyanoethyl)-6-((2-fluoro-[1,1′-biphenyl]-3-yl)methyl)-N-methyl-7-(methylsulfonamido)-5-azaspiro[2.4]heptane-5-carboxamide], the EC50 is 1 to 10 nM and the Emax was 90 to 100%.

Turning to `COC[C@H](C)NC(=O)N1CC2(CC2)[C@H](NS(C)(=O)=O)[C@@H]1Cc1cccc(-c2ccccc2)c1F` [Compound 328, (6S,7S)-6-((2-fluoro-[1,1′-biphenyl]-3-yl)methyl)-N-((S)-1-methoxypropan-2-yl)-7-(methylsulfonamido)-5-azaspiro[2.4]heptane-5-carboxamide], the EC50 is 1 to 10 nM and the Emax fell in the range of 90 to 100%.

With `CS(=O)(=O)N[C@@H]1[C@H](Cc2cccc(-c3ccccc3)c2F)N(C(=O)NC[C@@H]2CCOC2)CC12CC2` [Compound 329, (6S,7S)-6-((2-fluoro-[1,1′-biphenyl]-3-yl)methyl)-7-(methylsulfonamido)-N-(((S)-tetrahydrofuran-3-yl)methyl)-5-azaspiro[2.4]heptane-5-carboxamide], the EC50 is 1 to 10 nM and the Emax lay within 90 to 100%.

Regarding `CS(=O)(=O)N[C@@H]1[C@H](Cc2cccc(-c3ccccc3)c2F)N(C(=O)NCCC#N)CC12CC2` [Compound 330, (6S,7S)-N-(2-cyanoethyl)-6-((2-fluoro-[1,1′-biphenyl]-3-yl)methyl)-7-(methylsulfonamido)-5-azaspiro[2.4]heptane-5-carboxamide], the EC50 is 1 to 10 nM and the Emax fell in the range of 90 to 100%.

`CS(=O)(=O)N[C@@H]1[C@H](Cc2cccc(-c3ccccc3)c2F)N(C(=O)NC[C@H]2CCO2)CC12CC2` [Compound 331, (6S,7S)-6-((2-fluoro-[1,1′-biphenyl]-3-yl)methyl)-7-(methylsulfonamido)-N-(((R)-oxetan-2-yl)methyl)-5-azaspiro[2.4]heptane-5-carboxamide]: the EC50 was 1 to 10 nM and the Emax was 90 to 100%.

As to `CN(CC1CC1)C(=O)N1CC2(CC2)[C@H](NS(C)(=O)=O)[C@@H]1Cc1cccc(-c2ccccc2)c1F` [Compound 332, (6S,7S)-N-(cyclopropylmethyl)-6-((2-fluoro-[1,1′-biphenyl]-3-yl)methyl)-N-methyl-7-(methylsulfonamido)-5-azaspiro[2.4]heptane-5-carboxamide], the EC50 was 1 to 10 nM and the maximal response (Emax) was in the range of 90 to 100%.

Regarding `CS(=O)(=O)N[C@@H]1[C@H](Cc2cccc(-c3ccccc3)c2F)N(C(=O)NC[C@@H]2CCO2)CC12CC2` [Compound 333, (6S,7S)-6-((2-fluoro-[1,1′-biphenyl]-3-yl)methyl)-7-(methylsulfonamido)-N-(((S)-oxetan-2-yl)methyl)-5-azaspiro[2.4]heptane-5-carboxamide], the EC50 was 1 to 10 nM and the Emax lay in the range of 90 to 100%.
